Source: patent publication US20070049569A1, “Methods of using fatty-acid esters of estrogens and thermogenic compounds for reducing the body weight of a mammal and compositions containing the same” (Oleoyl-Estrone Developments SL, priority 2004, published 2007)

What was measured:
[1] = Body weight and lipid changes of overweight male Wistar rats in the 10-day period of treatment; assay type: in vivo; settings: 10-day treatment; oleoyl-estrone 10 micromol/kg daily gavage; CL-316243 1 mg/kg daily s.c. infusion
From the text: (§1) Forty-five day-old male Wistar rats were used. The rats were kept in collective cages in a light cycle, temperature, and humidity-controlled environment. They were fed tap water and a self-selected cafeteria diet (containing an excess of tasty, energy-dense foods, as well as standard chow) for 45 additional days. Then they were subjected to a 5-day diet adaptation period, in which they had rat chow as the sole food available. At this point, the rats weighed 350-370 g and had significant amounts of body fat. Maintaining the availability of rat chow (daily consumption by the group was recorded) and tap water, body weight was recorded daily. The animals were given a daily gavage of either 0.2 mL of sunflower oil or the same vehicle containing oleoyl-estrone to a daily dose of 10 micromol/kg of body weight.
(§2) This standard feeding and drug administration schedule was complemented by treating one half of the animals receiving only oil and one half of the animals receiving oil and oleoyl-estrone with a daily dose of 1 mg/kg of CL-316243, a beta-3 adrenergic agonist. This drug was continuously administered by means of subcutaneous infusion using Alzet osmotic minipumps (model 2002; 0.5 microliter/h) loaded with drug dissolved in saline. The minipumps were inserted subcutaneously in the dorsal lumbar area of the experimental animals by means of a short cut in the skin. The pumps were tested before their implantation, and the fluid remaining in the minipumps was later measured in order to check the effectiveness of the infusion.
(§3) The treatment was maintained up to 10 days, when the animals were killed by decapitation, and their blood and carcass were used for analyses.
The rat corpses, partially exsanguinated were dissected. The stomach and intestines were cleaned of their contents. The remaining carcass was sealed into polyethylene bags, autoclaved and blended to a fine paste. This paste was analyzed for lipid content by extraction using trichloromethane/methanol and corrected by its water content. Lipid content in the paste was referred to whole in vivo body weight for comparison.
(§4) Samples of the rat paste were dried and used for the estimation of their caloric content using a bomb calorimeter. The initial values for lipid content were calculated from the corresponding in vivo body weights at the beginning of the experiment and applying to all the animals the mean percentage of lipid content found in the control (vehicle only) group at the end of the experiment. This same procedure was used to determine the overall energy content of the carcasses by using the experimentally found energy content of the rats in the control group. Likewise, the energy content of the pellet diet was also measured and used to estimate the energy intake of the animals.

[2] = Energy balance (carcass energy content, energy intake, energy expenditure) of treated male Wistar rats; assay type: in vivo; settings: 10-day treatment; for changes in energy expenditure versus control group (in words): estimated as energy intake minus accrual; for loss of body energy: oleoyl-estrone 10 micromol/kg daily gavage, CL-316243 1 mg/kg daily s.c. infusion; for decrease in food consumption: versus control group
From the text: as §1, §2, §3, §4
Energy expenditure (Ee) was estimated as the difference between energy intake (Ei) and accrual (Ea), since: Ei=Ee±Ea.

SMILES: C[C@H](Cc1ccc2c(c1)OC(C(=O)[O-])(C(=O)[O-])O2)NC[C@H](O)c1cccc(Cl)c1.[Na+].[Na+] [beta-3 agonist]
- loss of body weight [1]: less than 3%
- loss of lipid (lipid stores) [1]: 42%
- contribution of internal reserves to fuel the energy expenditure [2]: 28%
- changes in energy expenditure versus control group (in words) [2]: higher than that of the control group by more than one-third
- loss of body energy [2]: 821 kJ
- increase in energy expenditure ([2]; rats treated with the beta-3 agonist, alone or with oleoyl-estrone): 136%
- decrease in food consumption [2]: did not show a significant loss of appetite

SMILES: CCCCCCCC/C=C\CCCCCCCC(=O)Oc1ccc2c(c1)CC[C@@H]1[C@@H]2CC[C@]2(C)C(=O)CC[C@@H]12 [oleoyl-estrone, [3(Z)]-3-[(1-oxo-9-octadecenyl)oxy]-estra-1,3,5(10)-trien-17-one]
- loss of body weight [1]: about 8%
- loss of lipid (lipid stores) [1]: 13%
- contribution of internal reserves to fuel the energy expenditure [2]: 19%
- changes in energy expenditure versus control group (in words) [2]: slight decrease
- loss of body energy [2]: 354 kJ
- decrease in food consumption [2]: 32%
